Patent publication US10265286B2, “Sequelae of cardiopulmonary bypass-induced pulmonary injury” (Vanderbilt University, priority 2016, dated 2019)

Legend:
[1] = Phase IB study: postoperative invasive mechanical ventilation; type: in vivo, human; conditions: for patients extubated in the operating room: Site 02
Method: The duration of postoperative invasive mechanical ventilation was derived as the time in hours from separation from cardiopulmonary bypass until endotracheal extubation. If a patient required reintubation within 24 hours after extubation, the reintubation time was added in the main analysis. In a second analysis, the reintubation time was not included.

[2] = Phase IB study: duration of hospitalization; type: in vivo, human; conditions: postoperative until discharge
Method: Duration of hospitalization was calculated as the total number of days postoperative until discharge from the hospital. The average duration of hospitalization was lower in the citrulline than the placebo treatment group, however, the difference was not statistically significant (Table 17).

[3] = Intravenous citrulline dose escalation safety (adverse effects, hypotension); type: in vivo, human
Method: The initial goal was to test the safety and pharmacokinetics of three doses of intravenous citrulline in children undergoing surgical repair of specific congenital heart defects. […] An adverse drop in mean arterial pressure was defined as a greater than a twenty percent decrease from baseline. The baseline postoperative mean arterial blood pressure was calculated as the average of mean arterial blood pressure measurements collected every 5 minutes for the 30 minutes immediately preceding the administration of the postoperative dose or infusion.

[4] = Phase IB study: safety (adverse events, bleeding, laboratory, hemodynamics); type: in vivo, human
Method: Primary safety assessments included hemodynamic monitoring to identify clinically significant hypotension using age-specific limits. Adverse event information was collected, and postoperative bleeding was recorded.
Further safety, laboratory, and clinical assessments were performed from baseline to discharge, secondary clinical variables included: postoperative mechanical ventilation, duration of total respiratory support, hemodynamic improvement, postoperative PVT by echocardiogram, serum creatinine and liver enzymes, inotrope score, duration of chest tube usage, length of intensive care unit stay, length of hospitalization and survival.

[5] = Hemodynamics (mean arterial blood pressure) after intravenous citrulline in piglets; type: in vivo, Duroc swine; conditions: 600 mg/kg IV
Method: The objective was to assess the safety of intravenous citrulline and its effect on serum arginine levels in piglets. A total of 9 Duroc swine, aged 5-21 days, with a target minimum weight of 4 kg were utilized. All piglets underwent anesthetic induction and tracheostomy. Central lines were placed in the femoral artery and femoral vein and hemodynamics monitored continuously. Citrulline (600 mg/kg IV) was administered to 5 piglets. Saline was given to control animals. Serum amino acids were drawn before and each hour after citrulline administration.

[6] = system: human vascular endothelial cells; experiment: Nitric oxide production by cultured human vascular endothelial cells (FIG. 23); type: cell-based; conditions: cells stimulated with acetylcholine; nitrate/nitrites by Seiver's system
Method: These agents were administered to cultured human vascular endothelial cells stimulated with acetylcholine. Measurement of nitric oxide was through a Seiver's system of nitrate/nitrites.

[7] = Phase IB study: postoperative invasive mechanical ventilation; type: in vivo, human; conditions: end of surgery until last extubation, FIG. 20
[8] = Phase IB study: plasma citrulline concentrations (Example 10A); type: in vivo, human; conditions: for Number of samples with Citrulline >100 μmol/L / Number of samples with Citrulline ≤100 μmol/L: all samples except baseline
Method: Twenty two (22) patients were enrolled and treated. Patients received an IV citrulline bolus of 150 mg/kg or placebo at the initiation of CPB, followed by the addition of L-citrulline at a concentration of 200 μmol/L or placebo to the filtration or hemoconcentration replacement fluid used during CPB. A citrulline bolus of 20 mg/kg was administered 30 minutes after decannulation from CPB, immediately followed by a 9-mg/kg/hr continuous infusion of citrulline or placebo for 48 hours. Study participation ended at discharge or at Day 28 whichever came first.
Plasma citrulline concentration levels were the primary PK variable; these were assessed in blood samples collected at 7 perioperative time points. Secondary PK variables were concentrations of arginine and nitric oxide (NO) metabolites in the same sample set. PK values were compared between groups.
The citrulline concentration levels during and after the CPB procedure was the PK parameter of interest in this study. The target level in patients treated with intravenous citrulline was a plasma citrulline level of >100 μmol/L during the immediate follow-up period after CPB. Plasma blood collection was performed at 7 perioperative time points: at baseline before surgery, during CPB (post-bolus 1), and after surgery/CPB at the time points 0 hours (pre bolus 2), 6 hours, 12 hours, 24 hours, and 48 hours.

[9] = revised IV protocol, Post Bolus 1
[10] = revised IV protocol, Pre Bolus 2

## NC(=O)NCCCC(N)C(=O)O (centres unmarked) [Citrulline, 2-amino-5-(carbamoylamino)pentanoic acid]
[1]; Re-intubation time excluded
  Duration of invasive mechanical ventilation, Diff (CI) placebo vs citrulline: 19.5 (1.9, 37.2) hours
  Duration of invasive mechanical ventilation, Mean ± SD: 5.1 ± 8.15 h
  Duration of invasive mechanical ventilation, Median: 0.0 h
  Duration of invasive mechanical ventilation, Range: 0.0 to 22.5 h
[1]; Re-intubation time included
  Duration of invasive mechanical ventilation, Diff (CI) placebo vs citrulline: 32.0 (−9.5, 73.4) hours
  Duration of invasive mechanical ventilation, Median: 0.0 h
  Duration of invasive mechanical ventilation, Range: 0.0 to 22.5 h
[1]; Re-intubation time included, N = 11
  Duration of invasive mechanical ventilation, Mean ± SD: 5.1 ± 8.15 h
[1]; Re-intubation time included, N = 11, listed as citrulline
  Duration of invasive mechanical ventilation, Mean ± SD: 5 h
[1]; placebo 2
  patients extubated in the operating room: 6 patients
[1]; placebo 33%
  patients extubated in the operating room: 100%
[2]
  Duration of hospitalization, Diff (CI) placebo vs citrulline: 3.7 (−2.2, 9.7) days
  Duration of hospitalization, Median: 5.0 days
  Duration of hospitalization, Range: 3.0 to 7.0 days
[2]; N = 11
  Duration of hospitalization, Mean ± SD: 4.6 ± 1.21 days
[3]; 50 mg/kg IV
  adverse side effects: No adverse side effects were noted
[3]; 100 mg/kg IV
  adverse side effects: no adverse side effects were noted
[3]; IV doses 200, 400, and 600 mg/kg
  adverse effects: no adverse effects were noted
[3]; any of 50, 100, 150 mg/kg IV
  adverse effects including hypotension: no adverse effects including hypotension
[3]; bolus 150 mg/kg plus continuous infusion 9 mg/kg/hr
  adverse side effects: No adverse side effects were noted
[3]; bolus 150 mg/kg plus infusion 9 mg/kg/hour for 48 hours, 9 patients
  significant adverse events: one significant adverse event but it was not related to the use of IV citrulline
[4]; citrulline group
  AE hypotension: 27%
  AE tachypnea: 27%
[4]; citrulline group, placebo 36%
  AE hypertension: 27%
[4]; citrulline group, placebo 45%
  AE pleural effusion: 36%
[4]; citrulline group, placebo 73%
  patients with at least one treatment-emergent AE: 100%
[4]; citrulline vs placebo
  Heart rate: consistently higher in the placebo group than the citrulline group
[4]; in vivo
  AE leading to death, SAE, AE leading to discontinuation: No AE leading to death, no SAE, and no AE leading to discontinuation
  impact on oxygen saturation or systemic arterial blood pressure: no noteworthy impact
  post-operative bleeding (length and volume of chest tube drainage) versus placebo: no difference in post-operative bleeding
[4]; stable in the placebo group, p=0.0111
  BUN: increased from baseline through to Day 2
[5]
  hemodynamic instability: No hemodynamic instability
[5]; 1 hour post
  Mean Arterial Blood Pressures: 67.4 mmHg
[5]; 2 hours post
  Mean Arterial Blood Pressures: 64.8 mmHg
[5]; 3 hours post
  Mean Arterial Blood Pressures: 62.2 mmHg
[5]; Pre-dose
  Mean Arterial Blood Pressures: 67.0 mmHg
[6]
  production of nitric oxide: increases the production of NO
[7]
  duration of mechanical ventilation versus placebo (Kaplan-Meier): reduced duration of mechanical ventilation
[8]; Site 01
  Number of samples with Citrulline >100 μmol/L: 25
  Number of samples with Citrulline ≤100 μmol/L: 2
[8]; Site 02
  Number of samples with Citrulline >100 μmol/L: 29
  Number of samples with Citrulline ≤100 μmol/L: 3
[8]; of the total of 59 samples, excluding baseline samples
  samples with plasma citrulline levels <100 μmol/L: 5
[8]; revised IV protocol, N = 11, Baseline
  Citrulline concentrations, Mean ± SD: 200.9 ± 569.89 µmol/L
[8]; revised IV protocol, Baseline
  Citrulline concentrations, Median: 32.0 µmol/L
[8]; revised IV protocol, Hour 6
  Citrulline concentrations, Mean ± SD: 167.8 ± 117.67 µmol/L
  Citrulline concentrations, Median: 138.0 µmol/L
[8]; revised IV protocol, Hour 12
  Citrulline concentrations, Mean ± SD: 127.1 ± 16.18 µmol/L
  Citrulline concentrations, Median: 125.0 µmol/L
[8]; revised IV protocol, Hour 24
  Citrulline concentrations, Mean ± SD: 125.3 ± 38.74 µmol/L
  Citrulline concentrations, Median: 114.0 µmol/L
[8]; [9]
  Citrulline concentrations, Mean ± SD: 2405.9 ± 1517.4 µmol/L
  Citrulline concentrations, Median: 2577.0 µmol/L
[8]; [10]
  Citrulline concentrations, Mean ± SD: 890.9 ± 1077.5 µmol/L
  Citrulline concentrations, Median: 573.0 µmol/L
[8]; revised IV protocol, target level 100 μmol/L
  plasma citrulline levels achieved: > 100 µmol/L
